Data on four compounds can be found in patent US11484591B2, “Chemoprevention using controlled-release formulations of anti-interleukin 6 agents, synthetic vitamin A analogues or metabolites, and estradiol metabolites” (OHIO STATE INNOVATION FOUNDATION, priority 2016, dated 2022).

Data set [1] can be described thus: 4-HPR release from PLGA implants, tumor and sera levels (UPLC/UV). The data set is classed as in vivo, nude mice. As to conditions: UPLC/UV vs calibration standard. From the text:
Determination of 4-HPR tumor levels entailed recording tumor wet mass, addition of internal standard (acitretin) and RIPA lysis buffer, followed by homogenization, addition of acetonitrile and centrifugation. Acetretin percent recovery was compared to a RIPA buffer/acetonitrile extraction control solution spiked with equivalent amount of acetretin and 4-HPR. Sera preparation entailed addition of acetretin and acetonitrile, sonication, followed by centrifugation.
(§1) SCC2095sc cells [10^6 cells suspended in 100 μl Matrigel (Corning Life Sciences, Corning, N.Y.)] were subcutaneously injected in the flanks of 6 week old male nude mice (n=6 per treatment group). Tumor measurements were recorded daily with calipers (greatest length and greatest width) and final tumor volumes calculated via tumor volume V=(length×width)×½. Treatment groups consisted of: 1) control (PBS injections)+blank (no drug) PLGA implants, 2) 2-ME (1 μg/100 μl PBS, b.i.d.)+blank PLGA implant, 3) 4-HPR releasing PLGA implant+PBS injections, 4) TOC q.d. (0.3 μg/100 μl PBS)+PLGA blank implant, 5) 2-ME (1 μg/100 μl PBS, b.i.d.)+4-HPR releasing PLGA implant, 6) 2-ME (1 μg/100 μl PBS, b.i.d.)+TOC q.d. (0.3 μg/100 μl PBS)+blank PLGA implant, 7) TOC q.d. (0.3 μg/100 μl PBS)+4-HPR releasing PLGA implant, 8) 2-ME (1 μg/100 μl PBS, b.i.d.)+TOC q.d. (0.3 μg/100 μl PBS)+4-HPR releasing PLGA implant. By day 14 post injection, all mice had measurable tumors and treatment began on day 15. […] Pretreatment mean tumor volumes therefore varied among treatment groups. PLGA implants (via trocar) and injections were placed in the center of the tumor. At day 28 post OSCC xenograft placement final tumor measurements were obtained, the mice were euthanized and OSCC tumors along with lung, liver and sera were harvested for pharmacokinetic, histologic and IHC analyses (Ki-67, cleaved caspase-3 and involucrin). Image analyses of the nuclear stains (Ki-67 and cleaved caspase 3) were conducted using Image-Pro Plus 6.2 software (Media Cybernetics, Rockville, Md.).

Data set [2] has as its system EGFR, ERK1/2 and STAT3 phosphorylation. In words: Effect of receptor targeted inhibitors on OSCC signaling (immunoblot). The data set is classed as cell-based, human. The conditions noted are these: 100 nM. As to the method:
The accompanying histogram depicts levels of phosphorylated […], ERK1/2 and STAT3 relative to GAPDH.
Dosing levels were determined by concurrent proliferation and viability studies in conjunction with literature values. The cells in every treatment group were then stimulated for 20 minutes with: vehicle (1 μl ddH2O), 50 ng/ml EGF, 50 ng/ml VEGF, or 50 ng/ml EGF+50 ng/ml VEGF, followed by standard immunoblotting and data normalization relative to GAPDH. […] Immunoblot images were captured (Li-Cor Odyssey imager) and analyzed (Li-Cor Image Studio, Version 4.0) to depict effects on treatment on phosphorylation relative to respective levels of GAPDH.
For orientation: In western blotting, separated proteins are transferred to a membrane and probed.

Data set [3] has as its system NF-κB subunits p65 and p50. The data set is described as follows: NF-κB subunit DNA binding and activation in OSCC cells. The format is cell-based, human. The conditions noted are these: data not shown. As for the experimental part:
Twenty four hour sera-deprived cells were treated for an additional 24 hours in sera free media with the following: 1) 0.01% DMSO (vehicle control), 2) 5 μM 4-HPR, 3) 2.5 μM 2-ME, 4) 1 μg/ml tocilizumab (TOC, […]) 5) 5 μM 4-HPR+2.5 μM 2-ME, 6) 5 μM 4-HPR+1 μg/ml TOC, 7) 2.5 μM 2-ME+1 μg/ml TOC, 8) 5 μM 4-HPR+2.5 μM 2-ME+1 μg/ml TOC. Following treatment, conditioned media were collected (ELISAs for IL-6, sIL-6R, TGF-α, VEGF, EGF, R&D Systems, Minneapolis, Minn.) and nuclear and cytosolic lysates (Nuclear Extract Kit, Active Motif, Carlsbad, Calif.) isolated for EMSAs (STAT3, NFκB p50 and p65, TransAM Transcription Factor ELISAs, Active Motif) and cytosolic and nuclear extracts for Westerns (NE-PER Nuclear and Cytoplasmic Extraction Reagents, ThermoFisher Scientific, Waltham Mass.). […]

The nature of data set [4]: In vitro release of 2-ME from PLGA. As to conditions: two low molecular weight acid-capped PLGA 50/50s, 10% 2-ME loading. The format is physicochemical. From the text:
In one embodiment, 2-ME in PLGA can maximize drug loading and facilitate continuous release of the steroid over the correct time scale of release in vivo. Maximizing drug loading can provide more flexibility for dosing and increase the probability of attaining local therapeutic levels. IN one embodiment, the steroid is slowly and continuously released for >1 month in vitro from two different low molecular weight acid-capped PLGA 50/50s at 10% 2-ME loading.
2-ME with/without excipients can be combined with acid-capped PLGA 50/50 (13-24 kD) in acetone and extruded. Drug loading is typically about 10-50%. Drug loading can be determined by HPLC after dissolving implants in acetonitrile. Release kinetics in vitro can be performed in PBS+0.02% Tween 80 (PBST) at 37° C. under perfect sink conditions with HPLC detection.

For data set [5], the system named is SCC2095sc cells. In words: OSCC tumor xenografts, tumor volume. The data set is classed as in vivo, nude mice. As to conditions: for inhibition of established OSCC tumor growth / tumor size: discussion of xenograft study. As for the experimental part:
One million SCC2095sc cells (suspended in 100 μl Matrigel) were subcutaneously injected in flanks of 6 to 7 week old male nude mice (n=6 per treatment group). By day 14 post injection, all mice had palpable and measurable tumors. Treatment began on day 15. Caliper-based tumor measurements were recorded daily and final tumor volumes calculated via tumor volume V=(length×width)×½. Treatment groups consisted of: 1) control (PBS injections)+blank (no drug) polylactide co-glycolide (PLGA) implants, 2) 2-methoxyestradiol (2-ME) (1 μg/100 μl PBS, b.i.d.)+blank PLGA implant, 3) fenretinide (4-HPR) releasing PLGA implant+PBS injections, 4) tocilizumab (TOC) q.d. (0.3 μg/100 μl PBS)+PLGA blank implant, 5) 2-ME (1 μg/100 μl PBS, b.i.d.)+4-HPR releasing PLGA implant, 6) 2-ME (1 μg/100 μl PBS, b.i.d.)+TOC q.d. (0.3 μg/100 μl PBS)+blank PLGA implant, 7) TOC q.d. (0.3 μg/100 μl PBS)+4-HPR releasing PLGA implant, 8) 2-ME (1 μg/100 μl PBS, b.i.d.)+TOC q.d. (0.3 μg/100 μl PBS)+4-HPR releasing PLGA implant. In previous studies that employed younger mice tumors of varying sizes were disbursed among all treatment groups. Due to the older age of mice >6 weeks and the accompanying cage aggression tumor size distribution was not feasible in these studies. As a result, mean tumor volumes varied appreciably among treatment groups. PLGA implants (trocar placement) and injections were placed in the center of the tumor. Fluid dispersion throughout tumor was noted during injections. At day 28 post OSCC xenograft placement the mice were sacrificed, OSCC tumors along with lung and liver tissues and sera were harvested (for PK and histologic analyses). […] Provided the discrepancy in pretreatment tumor volumes (TOC the lowest, triple treatment second highest with its mean nearly two fold higher than TOC mean), the TOC+2-ME+4-HPR data are especially creditable.
as §1

The conditions of data set [6]: cited from earlier work.
Data set [7] deals with SCC2095sc cells. In words: IHC of OSCC xenograft tumors (Ki-67, cleaved caspase 3, involucrin). The conditions noted are these: qualitative. The data set is classed as in vivo, nude mice. The source says: IHC images representative of all of the groups are presented. The PLGA implants are visible as a clear cylindrical object in every photomicrograph except the TOC and 2-ME+TOC treatment. To facilitate PLGA implant recognition, arrows have been placed within the implants. Both the Ki-67 and caspase 3 stains are located within the nucleus. Qualitative Ki67 staining assessment was most apparent at the periphery of the tumors in all groups. In contrast to the abundant Ki-67 staining, cleaved caspase 3 was not nearly as prominent.
(Image scale 4× and 10× for smaller and larger photomicrographs, respectively).
SCC2095sc cells [10^6 cells suspended in 100 μl Matrigel (Corning Life Sciences, Corning, N.Y.)] were subcutaneously injected in the flanks of 6 week old male nude mice (n=6 per treatment group). Tumor measurements were recorded daily with calipers (greatest length and greatest width) and final tumor volumes calculated via tumor volume V=(length×width)×½. Treatment groups consisted of: 1) control (PBS injections)+blank (no drug) PLGA implants, 2) 2-ME (1 μg/100 μl PBS, b.i.d.)+blank PLGA implant, 3) 4-HPR releasing PLGA implant+PBS injections, 4) TOC q.d. (0.3 μg/100 μl PBS)+PLGA blank implant, 5) 2-ME (1 μg/100 μl PBS, b.i.d.)+4-HPR releasing PLGA implant, 6) 2-ME (1 μg/100 μl PBS, b.i.d.)+TOC q.d. (0.3 μg/100 μl PBS)+blank PLGA implant, 7) TOC q.d. […]

The test system of the next data set is HNSCC tumor. The conditions noted are these: 100 μg i.p., scid mice, reference 48; cited from earlier work.
The test system of another data set is sIL-6R. The data set is described as follows: sIL-6R release from OSCC cell lines (ELISA). The data set is classed as cell-based, human. As to conditions: 5 μM 4-HPR, 2.5 μM 2-ME, 1 μg/ml TOC, 24 h. As to the method:
FIGS. 5A and 5B show the evaluation of the effects of single and combination treatment of fenretinide (4-HPR, 5 μM), 2-methoxyestradiol (2-ME, 2.5 μM) and the IL-6R inhibitor TOC (1 ug/ml) on STAT3-DNA binding and on release of the stromal and tumor cell activating, trans-signaling molecule, sIL-6R. (A) Treatment effects of STAT3-DNA binding. All cell lines with constitutive pSTAT3 expression (2095sc, JSCC1, JSCC2) were sera deprived for 24 h, followed by an additional 24 hours of treatment in sera-free medium that contained: control (0.1% DMSO), 5 μM 4-HPR, 2.5 μM 2-ME, 1 μg/ml TOC (initial agent concentrations same for single and combinations). As the JSCC3 cells don't constitutively express pSTAT3, these cells underwent 24 h stimulation in base medium supplemented with 10 ng/mL of IL-6 and 5 ng/mL of TGF-α, with or without 4-HPR, 2-ME and TOC followed by harvest. […] (n=13, Kruskal Wallis ANOVA followed by Dunn's Multiple Comparison post hoc test). […] (B) Effects of treatment on cell line release of sIL-6R. All four cell lines released sIL-6R [levels ranges from ˜750 fg/10^6 (JSCC2 cells baseline) to ˜3,000 fg/10^6 cells (stimulated JSCC3 cells, baseline production JSCC3˜2,000 fg/10^6 cells). […]
On the technique in general: In an ELISA, binding on a coated surface is turned into a signal by an enzyme label.

Entries after “also recorded” stand apart in the source; their conditions may differ.

As for `CC1=C(/C=C/C(C)=C/C=C/C(C)=C/C(=O)Nc2ccc(O)cc2)C(C)(C)CCC1=O` [4-oxo-4-HPR, 4-oxo-fenretinide], in data set [1], the “oxidized metabolite in tumor or sera samples” value is “no evidence”.
For `COC(=O)c1ccc2c(c1)NC(=O)/C2=C(\Nc1ccc(N(C)C(=O)CN2CCN(C)CC2)cc1)c1ccccc1` [Vargatef], the “phosphorylated STAT3 despite treatment” value in data set [2] (JSCC1 and JSCC2 cells) was “high to moderate levels of phosphorylated STAT3 persisted; also recorded: pSTAT3 persisted”. Besides, the “phosphorylation at the EGFR, ERK1/2 and STAT3 levels” value in [2] (JSCC3 cells, 1 h pretreatment, EGF/VEGF stimulation) was “reduced phosphorylation; also recorded: blocked STAT3 phosphorylation”.
As to `COc1cc2c(cc1O)CC[C@@H]1[C@@H]2CC[C@]2(C)[C@@H](O)CC[C@@H]12` [2-ME, 2-Methoxyestradiol], in [3], the “NF-κB activation in OSCC cells” value is given as “didn't inhibit”. In addition, the “duration of slow continuous release in vitro” value in data set [4] is greater than 1 month. The “tumor cell invasion and metastasis” value with SCC2095sc cells [5] (2-ME treatment group) is “Lymphovascular (several mice) and perineural (single mouse) invasion”. In addition, in the data set with SCC2095sc cells [5], the “inhibition of established OSCC tumor growth / tumor size” value is given as “lack of 2-ME efficacy”. The half-life in data set [6] was roughly 4 h. In addition, in the data set with SCC2095sc cells [7], the “involucrin expression (differentiation)” value was “most intense expression”.
In the case of “TOC: humanized monoclonal antibody to the IL-6R receptor tocilizumab”, in the data set with SCC2095sc cells [5] (day 15 to day 28, intratumoral treatment), the “mean tumor fold size increase” value was determined as 2.13 fold. Besides, in the data set on SCC2095sc cells [5], the “inhibition of established OSCC tumor growth / tumor size” value is “significantly inhibited OSCC tumor growth”. Besides, in the data set on SCC2095sc cells [5] (intratumoral, TOC 0.3 μg q.d., 2-ME 1 μg b.i.d., 4-HPR PLGA implant, paired t test), the “increase in tumor volume over 14 days” value is given as “prevented a significant increase in tumor volume”. The half-life in data set [6] was roughly 19 h. Further, in the data set with HNSCC tumor, the HNSCC tumor initiation result is on record as “significantly reduced HNSCC tumor initiation” and the established tumor growth entry was “didn't significantly inhibit established tumor growth”. Moreover, the sIL-6R release result with sIL-6R is recorded as “significantly reduced”. Further, the sIL-6R release result in the data set with sIL-6R (listed as tocilizumab) is “significantly inhibited”.

In general, half-life refers to the time in which the quantity being followed falls by half.
